From US10682409B2, “Therapeutic treatment” (priority 2012, dated 2020)

Test: Example 2 case study: child with ADHD on methylphenidate, then Periactin (height, weight, percentiles, attentiveness)
Assay type: in vivo, human
Source text: Case study: A child was presented by their parents for symptoms of attention deficit hyperactivity disorder. Their size at evaluation was 4′1¾″ and 50 lbs, corresponding to the 81st and 50th percentiles when compared to girls their age. […] At three months following the initiation of treatment for ADHD, the child was 4′2⅞″ and 50½ lbs, corresponding to the 85th and 34rd percentiles when compared to girls their age. At one year, they were 4′4⅜″ and 53 lbs, corresponding to the 84th and 36th percentiles when compared to girls their age. At two years they were 4′5¾″ and 54 lbs, corresponding to the 72nd and 17th percentiles when compared to girls their age. At four years of treatment they were 4′7⅜″ and 59 lbs, corresponding to 70th and 14th percentiles when compared to girls their age. At five years of treatment they were 4′9⅞″ and 64½ lbs, corresponding to 59th and 7th percentiles when compared to girls their age.
The child was then prescribed Periactin at a dosage of 2 mg b.i.d. to attempt to stimulate appetite. The dose was taken in the morning and then in the afternoon. After one year they were 4′11½″ and 72½ lbs, corresponding to 33rd and 5th percentiles when compared to girls their age. The child was then prescribed Periactin at a dose of 4 mg b.i.d. After two months on this dose, they were 5′¼″ and 76 lbs, corresponding to 37th and 8th percentiles when compared to girls their age. At 8 months on this dose, they were 5′½″ and 80 lbs, corresponding to 41st and 8th percentiles when compared to girls their age. At one year on this dose, they were 5′2¾″ and 89½ lbs, corresponding to 51st and 17th percentiles when compared to girls their age. At 18 months on this dose, they were 5′3⅝″ and 99½ lbs, corresponding to 56th and 30th percentiles when compared to girls their age. Additionally, the attentiveness of the child increase following the prescription of Periactin as they increased their food intake during the day.

[1] = Periactin 2 mg b.i.d., after one year
[2] = Periactin 4 mg b.i.d., 8 months
[3] = Periactin 4 mg b.i.d., 18 months
[4] = Periactin 4 mg b.i.d., one year
[5] = Periactin 4 mg b.i.d., two months

CN1CCC(=C2c3ccccc3C=Cc3ccccc32)CC1.Cl [Periactin, 4-(5H-dibenzo[a,d]cyclohepten-5-ylidene)-1-methylpiperidine hydrochloride]
height percentile compared to girls their age [1]: 33 percentile
weight percentile compared to girls their age [1]: 5 percentile
height percentile compared to girls their age [2]: 41 percentile
weight [2]: 80 lbs
weight percentile compared to girls their age [2]: 8 percentile
height percentile compared to girls their age [3]: 56 percentile
weight percentile compared to girls their age [3]: 30 percentile
height percentile compared to girls their age [4]: 51 percentile
weight percentile compared to girls their age [4]: 17 percentile
height percentile compared to girls their age [5]: 37 percentile
weight [5]: 76 lbs
weight percentile compared to girls their age [5]: 8 percentile
attentiveness (following the prescription of Periactin): increase
